PubChem BioAssay (NCI)
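Here, GI50 denotes the concentration required for 50% inhibition of growth. TGI is the concentration that stops growth completely.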

Columns and labels:
Assay in all cases: DTP human tumour cell line panel, 384-well format
[1] = system: CCRF-CEM leukemia
[2] = system: HL-60(TB) leukemia
[3] = system: SK-OV-3 ovarian
[4] = system: HCC-2998 colon
[5] = system: PC-3 prostate
[6] = system: COLO 205 colon
[7] = system: T-47D breast
[8] = system: NCI-H460 NSCLC
[9] = system: OVCAR-5 ovarian
[10] = system: TK-10 renal
[11] = system: NCI-H226 lung
[12] = system: SF-268 CNS
[13] = system: RXF 393 renal
[14] = system: 786-0 renal
[15] = system: M14 melanoma
[16] = system: KM12 colon
[17] = system: HOP-62 NSCLC
[18] = system: DU-145 prostate
[19] = system: MCF7 breast
[20] = system: UACC-257 melanoma
[21] = system: SF-295 CNS
[22] = system: U251 glioblastoma
[23] = system: NCI-H322M lung
[24] = system: OVCAR-4 ovarian
[25] = system: SF-539 CNS
[26] = system: SNB-75 CNS
[27] = system: SNB-19 CNS
[28] = system: HT29 colon
[29] = system: MDA-MB-435 melanoma
[30] = system: A498 renal
[31] = system: NCI/ADR-RES ovarian
[32] = system: ACHN renal
[33] = system: NCI-H522 lung
[34] = system: SK-MEL-28 melanoma
[35] = system: RPMI-8226 leukemia
[36] = system: SK-MEL-5 melanoma
[37] = system: SW-620 colon
[38] = system: K-562 leukemia
[39] = system: SK-MEL-2 melanoma
[40] = system: OVCAR-3 ovarian
[41] = system: BT-549 breast
[42] = system: MDA-MB-231 breast
[43] = system: HS 578T breast
[44] = system: HCT-116 colon
[45] = system: CAKI-1 renal
[46] = system: MOLT-4 leukemia
[47] = system: MDA-MB-468 breast
[48] = system: HCT-15 colon
[49] = system: IGROV1 ovarian
[50] = system: EKVX NSCLC
[51] = system: UACC-62 melanoma
[52] = system: UO-31 renal
[53] = system: NCI-H23 lung
[54] = system: MALME-3M melanoma
[55] = system: SR leukemia
[56] = system: A549 NSCLC
[57] = system: HOP-92 NSCLC

NC(=O)NO
GI50 [1]: 76.3 µM
GI50 [2]: 81.9 µM

CS(=O)(=O)c1ccc(-c2cnc(N)c(C(=O)Nc3ccccc3)n2)cc1
GI50 [3]: 3.68 µM
TGI [3]: 40 µM
GI50 [4]: 0.543 µM
TGI [4]: 9.37 µM
GI50 [5]: 15 µM
TGI [5]: > 100 µM
GI50 [6]: 29.5 µM
TGI [6]: > 100 µM
GI50 [7]: > 100 µM
TGI [7]: > 100 µM
GI50 [8]: 3.73 µM
TGI [8]: > 100 µM
GI50 [9]: 33.6 µM
TGI [9]: > 100 µM
GI50 [10]: 2.75 µM
TGI [10]: 18.7 µM
GI50 [11]: 46.8 µM
TGI [11]: > 100 µM
GI50 [12]: > 100 µM
TGI [12]: > 100 µM
GI50 [13]: 6.56 µM
TGI [13]: 43.4 µM
GI50 [14]: 3.11 µM
TGI [14]: 65.7 µM
GI50 [15]: 5.68 µM
TGI [15]: > 100 µM
GI50 [16]: 40 µM
TGI [16]: > 100 µM
GI50 [17]: 7.72 µM
TGI [17]: > 100 µM
GI50 [18]: 4.53 µM
TGI [18]: > 100 µM
GI50 [19]: 2.78 µM
TGI [19]: > 100 µM
GI50 [20]: > 100 µM
TGI [20]: > 100 µM
GI50 [21]: 7.75 µM
TGI [21]: > 100 µM
GI50 [22]: 6.52 µM
TGI [22]: > 100 µM
GI50 [23]: 14.9 µM
TGI [23]: > 100 µM
GI50 [1]: 1.51 µM
TGI [1]: 3.01 µM
GI50 [24]: 11.9 µM
TGI [24]: 93 µM
GI50 [25]: 5.27 µM
TGI [25]: > 100 µM
GI50 [26]: 16.6 µM
TGI [26]: > 100 µM
GI50 [27]: 28.2 µM
TGI [27]: > 100 µM
GI50 [28]: 3.76 µM
TGI [28]: > 100 µM
GI50 [29]: > 100 µM
TGI [29]: > 100 µM
GI50 [30]: 2.78 µM
TGI [30]: 28.6 µM
GI50 [31]: > 100 µM
TGI [31]: > 100 µM
GI50 [32]: 3.02 µM
TGI [32]: 16.1 µM
GI50 [33]: 5.61 µM
TGI [33]: > 100 µM
GI50 [34]: > 100 µM
TGI [34]: > 100 µM
GI50 [35]: 3.12 µM
TGI [35]: > 100 µM
GI50 [2]: 3.34 µM
TGI [2]: 9.07 µM
GI50 [36]: 16.1 µM
TGI [36]: > 100 µM
GI50 [37]: > 100 µM
TGI [37]: > 100 µM
GI50 [38]: 4.62 µM
TGI [38]: > 100 µM
GI50 [39]: 5.35 µM
TGI [39]: 13.2 µM
GI50 [40]: 12.1 µM
TGI [40]: > 100 µM
GI50 [41]: 2.6 µM
TGI [41]: 11.5 µM
GI50 [42]: 62.3 µM
TGI [42]: > 100 µM
GI50 [43]: 4.54 µM
TGI [43]: 49.9 µM
GI50 [44]: > 100 µM
TGI [44]: > 100 µM
GI50 [45]: 5.25 µM
TGI [45]: 18.4 µM
GI50 [46]: 1.46 µM
TGI [46]: 2.81 µM
GI50 [47]: 2.6 µM
TGI [47]: > 100 µM
GI50 [48]: 3.32 µM
TGI [48]: > 100 µM
GI50 [49]: 2.9 µM
TGI [49]: > 100 µM
GI50 [50]: > 100 µM
TGI [50]: > 100 µM
GI50 [51]: 18.9 µM
TGI [51]: > 100 µM
GI50 [52]: 6.65 µM
TGI [52]: 22.1 µM
GI50 [53]: 3.02 µM
TGI [53]: 58.7 µM
GI50 [54]: 37.2 µM
TGI [54]: > 100 µM
GI50 [55]: 0.603 µM
TGI [55]: 4.57 µM
GI50 [56]: 5.47 µM
TGI [56]: > 100 µM
GI50 [57]: 4.58 µM
TGI [57]: > 100 µM
